Holding throughout (format): binding
One assay concerns the target T1, BRK (Homo sapiens, UniProt Q13882).
T1 construct: purchased DiscoveRx KINOMEscan
The following applies: for remaining binding at 10 µM: read-out: Percent control; for Percent control: BRK, 10 μM.

A further assay has as its target T2, BTK (Homo sapiens, UniProt Q06187).
T2 construct: purchased DiscoveRx KINOMEscan
Particulars: for remaining binding at 10 µM: read-out: Percent control.

For the next assay, the target named is T3, FES (Homo sapiens, UniProt P07332).
T3 construct: purchased DiscoveRx KINOMEscan
Particulars: for remaining binding at 10 µM: read-out: Percent control.

Assay [1] addresses T4, TYK2(JH1domain-catalytic) (Homo sapiens, UniProt P29597).
T4 construct: TYK2(JH1domain-catalytic); purchased DiscoveRx (KINOMEscan service)
T4 sequence (P29597 897-1176 limits assumed): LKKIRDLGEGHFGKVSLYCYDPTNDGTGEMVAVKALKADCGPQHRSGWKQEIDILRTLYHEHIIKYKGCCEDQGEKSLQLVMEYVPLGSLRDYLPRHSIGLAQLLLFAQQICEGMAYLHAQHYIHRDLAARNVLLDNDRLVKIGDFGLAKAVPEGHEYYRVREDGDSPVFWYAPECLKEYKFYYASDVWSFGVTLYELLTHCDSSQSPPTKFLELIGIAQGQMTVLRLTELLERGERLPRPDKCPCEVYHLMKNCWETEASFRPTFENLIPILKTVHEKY
The following applies: for remaining binding at 10 µM: read-out: Percent control; for Percent control: 10 μM.

The next assay addresses T5, EPHA3 (Homo sapiens, UniProt P29320).
T5 construct: purchased DiscoveRx KINOMEscan
T5 sequence (P29320 21-983): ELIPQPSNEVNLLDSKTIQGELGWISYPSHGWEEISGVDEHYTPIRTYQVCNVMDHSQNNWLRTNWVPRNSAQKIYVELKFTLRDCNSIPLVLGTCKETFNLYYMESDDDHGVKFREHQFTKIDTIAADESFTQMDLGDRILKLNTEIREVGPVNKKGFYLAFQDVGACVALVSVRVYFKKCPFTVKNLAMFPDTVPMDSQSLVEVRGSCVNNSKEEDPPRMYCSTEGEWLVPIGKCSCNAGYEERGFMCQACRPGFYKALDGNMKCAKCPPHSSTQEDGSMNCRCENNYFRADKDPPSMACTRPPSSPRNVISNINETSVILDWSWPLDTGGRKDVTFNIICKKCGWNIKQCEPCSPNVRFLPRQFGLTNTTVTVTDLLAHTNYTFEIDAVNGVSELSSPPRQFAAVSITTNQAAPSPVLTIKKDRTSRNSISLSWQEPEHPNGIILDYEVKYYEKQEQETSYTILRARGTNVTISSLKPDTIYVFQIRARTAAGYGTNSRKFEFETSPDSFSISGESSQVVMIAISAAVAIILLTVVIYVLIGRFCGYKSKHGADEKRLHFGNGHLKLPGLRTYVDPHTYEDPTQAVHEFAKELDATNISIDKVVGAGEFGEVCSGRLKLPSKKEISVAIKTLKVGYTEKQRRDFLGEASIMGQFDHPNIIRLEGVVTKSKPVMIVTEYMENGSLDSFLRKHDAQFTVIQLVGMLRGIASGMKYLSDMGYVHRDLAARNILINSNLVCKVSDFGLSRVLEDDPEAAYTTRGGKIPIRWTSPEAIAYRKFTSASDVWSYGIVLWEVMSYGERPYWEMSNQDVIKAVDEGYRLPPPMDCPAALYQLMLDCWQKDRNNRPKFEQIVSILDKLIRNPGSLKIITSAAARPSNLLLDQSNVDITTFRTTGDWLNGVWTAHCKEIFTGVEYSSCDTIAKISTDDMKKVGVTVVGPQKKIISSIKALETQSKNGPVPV
Particulars: for remaining binding at 10 µM: read-out: Percent control.

For another assay, the target named is T6, EPHB3 (Homo sapiens, UniProt P54753).
T6 construct: purchased DiscoveRx KINOMEscan
T6 sequence (P54753 34-998): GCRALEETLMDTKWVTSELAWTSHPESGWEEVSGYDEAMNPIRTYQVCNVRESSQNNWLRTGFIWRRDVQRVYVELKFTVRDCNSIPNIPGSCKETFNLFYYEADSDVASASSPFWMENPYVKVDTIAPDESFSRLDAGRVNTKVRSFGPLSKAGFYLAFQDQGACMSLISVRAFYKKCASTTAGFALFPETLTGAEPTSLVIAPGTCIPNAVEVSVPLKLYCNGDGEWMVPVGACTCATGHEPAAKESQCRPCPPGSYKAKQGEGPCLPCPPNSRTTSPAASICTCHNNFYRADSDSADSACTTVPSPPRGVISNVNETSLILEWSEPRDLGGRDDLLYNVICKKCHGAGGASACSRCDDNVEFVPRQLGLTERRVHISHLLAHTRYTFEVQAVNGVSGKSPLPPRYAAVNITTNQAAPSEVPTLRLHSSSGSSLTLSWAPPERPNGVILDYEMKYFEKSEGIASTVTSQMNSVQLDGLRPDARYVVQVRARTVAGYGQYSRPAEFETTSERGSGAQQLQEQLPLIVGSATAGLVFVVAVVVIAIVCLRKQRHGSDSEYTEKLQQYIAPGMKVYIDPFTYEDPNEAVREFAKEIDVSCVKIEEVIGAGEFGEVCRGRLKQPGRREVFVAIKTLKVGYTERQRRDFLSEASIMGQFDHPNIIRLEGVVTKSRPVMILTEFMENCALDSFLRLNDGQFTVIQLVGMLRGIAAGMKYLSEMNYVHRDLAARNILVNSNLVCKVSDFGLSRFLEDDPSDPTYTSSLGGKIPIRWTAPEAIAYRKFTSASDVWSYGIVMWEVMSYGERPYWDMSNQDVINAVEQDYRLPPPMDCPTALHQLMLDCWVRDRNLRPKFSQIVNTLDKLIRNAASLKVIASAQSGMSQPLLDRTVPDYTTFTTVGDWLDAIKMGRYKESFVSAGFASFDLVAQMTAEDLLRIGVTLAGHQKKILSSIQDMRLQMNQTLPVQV
Particulars: for remaining binding at 10 µM: read-out: Percent control.

Where two headings read alike, the source gives them in different places.

T1 sequence (Q13882 whole entry): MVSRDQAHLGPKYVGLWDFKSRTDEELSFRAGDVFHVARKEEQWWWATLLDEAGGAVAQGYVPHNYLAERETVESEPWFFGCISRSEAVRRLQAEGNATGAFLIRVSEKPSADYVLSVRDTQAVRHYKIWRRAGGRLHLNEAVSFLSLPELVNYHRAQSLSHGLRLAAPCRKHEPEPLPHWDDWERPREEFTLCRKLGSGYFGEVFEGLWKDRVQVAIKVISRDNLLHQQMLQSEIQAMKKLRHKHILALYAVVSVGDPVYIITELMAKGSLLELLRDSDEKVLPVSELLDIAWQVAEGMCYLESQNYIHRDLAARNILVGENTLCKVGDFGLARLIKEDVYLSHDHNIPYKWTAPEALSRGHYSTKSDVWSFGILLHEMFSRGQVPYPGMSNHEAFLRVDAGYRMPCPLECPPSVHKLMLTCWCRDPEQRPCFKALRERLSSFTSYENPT
T2 sequence (Q06187 whole entry): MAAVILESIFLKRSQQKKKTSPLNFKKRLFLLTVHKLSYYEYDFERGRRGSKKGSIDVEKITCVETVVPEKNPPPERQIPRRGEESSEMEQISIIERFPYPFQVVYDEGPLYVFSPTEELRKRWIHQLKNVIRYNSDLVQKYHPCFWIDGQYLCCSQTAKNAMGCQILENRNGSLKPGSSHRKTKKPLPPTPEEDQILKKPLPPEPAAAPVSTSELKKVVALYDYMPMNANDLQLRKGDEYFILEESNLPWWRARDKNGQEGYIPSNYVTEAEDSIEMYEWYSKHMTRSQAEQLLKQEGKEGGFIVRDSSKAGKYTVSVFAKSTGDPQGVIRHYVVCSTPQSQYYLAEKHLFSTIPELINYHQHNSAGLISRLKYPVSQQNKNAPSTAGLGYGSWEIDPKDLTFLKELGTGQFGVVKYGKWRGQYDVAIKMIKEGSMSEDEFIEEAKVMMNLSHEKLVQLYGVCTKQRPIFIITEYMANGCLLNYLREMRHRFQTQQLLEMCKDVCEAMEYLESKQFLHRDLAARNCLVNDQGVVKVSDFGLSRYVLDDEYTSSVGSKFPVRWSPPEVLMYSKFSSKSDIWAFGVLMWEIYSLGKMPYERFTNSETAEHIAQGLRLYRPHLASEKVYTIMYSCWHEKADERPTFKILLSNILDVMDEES
T3 sequence (P07332 whole entry): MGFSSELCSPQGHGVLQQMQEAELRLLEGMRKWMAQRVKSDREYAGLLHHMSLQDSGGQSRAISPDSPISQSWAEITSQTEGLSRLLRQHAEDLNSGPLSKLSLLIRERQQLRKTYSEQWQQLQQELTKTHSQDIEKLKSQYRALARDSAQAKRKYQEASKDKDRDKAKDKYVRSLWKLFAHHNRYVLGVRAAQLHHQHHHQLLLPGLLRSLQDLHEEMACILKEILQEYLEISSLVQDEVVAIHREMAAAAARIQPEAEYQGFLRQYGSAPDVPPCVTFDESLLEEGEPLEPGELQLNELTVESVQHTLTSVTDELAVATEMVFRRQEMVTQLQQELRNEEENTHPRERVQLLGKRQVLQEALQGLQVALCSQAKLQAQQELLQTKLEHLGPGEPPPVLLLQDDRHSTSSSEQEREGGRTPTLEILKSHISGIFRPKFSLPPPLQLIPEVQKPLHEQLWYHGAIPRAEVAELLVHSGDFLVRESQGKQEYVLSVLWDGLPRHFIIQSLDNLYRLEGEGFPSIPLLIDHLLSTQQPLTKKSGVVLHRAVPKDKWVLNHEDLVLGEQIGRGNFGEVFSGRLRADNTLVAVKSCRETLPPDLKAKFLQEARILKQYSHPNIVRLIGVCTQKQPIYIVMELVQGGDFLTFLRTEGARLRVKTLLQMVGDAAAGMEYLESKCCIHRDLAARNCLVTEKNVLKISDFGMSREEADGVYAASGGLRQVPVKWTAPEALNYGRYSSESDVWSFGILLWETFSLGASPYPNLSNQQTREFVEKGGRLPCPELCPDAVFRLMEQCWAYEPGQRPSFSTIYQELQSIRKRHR

As for `COc1cc2c(Nc3ccc(Br)cc3F)ncnc2cc1OCC1CCN(C)CC1` [Vandetanib, reference compound], the remaining binding at 10 µM stood at 1.6% on BRK; 14.5% at BTK (BTK, 10 μM); 100% on FES (FES, 10 μM); 100% in assay [1]; 16.7% on EPHA3 (EPHA3, 10 μM); 100% on EPHB3 (EPHB3, 10 μM).

Turning to `Cc1ccc(NC(=O)c2ccc(CN3CCN(C)CC3)cc2)cc1Nc1nccc(-c2cccnc2)[n+]1[Pt-2]1([Cl])[NH2+]C2CCCCC2[NH2+]1` (stereo not drawn) [1b, oxaliplatin-imatinib], the Percent control is recorded as 93% at BRK; 100% at BTK (BTK, 10 μM); 96% on FES (FES, 10 μM); 94% in assay [1]; 64% on EPHA3 (EPHA3, 10 μM); 87% on EPHB3 (EPHB3, 10 μM).

Regarding `C#Cc1cccc(Nc2ncnc3cc(OCCOC)c(OCCOC)cc23)c1` [Erlotinib], the remaining binding at 10 µM on BRK came to 100%; on BTK, 100%; on FES it was 100%; in assay [1], 100%; at EPHA3, 19.4%; on EPHB3, 100%.

Turning to `COc1cc2c(Nc3ccc(Br)cc3F)[n+]([Pt-2]3([Cl])[NH2+]C4CCCCC4[NH2+]3)cnc2cc1OCC1CCN(C)CC1` (stereo not drawn) [3b, oxaliplatin-vandetanib], the Percent control at BRK turned out to be 27%; on BTK (BTK, 10 μM) it was 37%; on FES (FES, 10 μM) it was 100%; in assay [1], 83%; at EPHA3 (EPHA3, 10 μM), 30%; at EPHB3 (EPHB3, 10 μM), 100%.

On to `C#Cc1cccc(Nc2c3cc(OCCOC)c(OCCOC)cc3nc[n+]2[Pt@SP2-2]([NH3+])([NH3+])[Cl])c1` [2a, cisplatin-erlotinib], for which the Percent control came to 89% at BRK; 87% on BTK (BTK, 10 μM); 98% on FES (FES, 10 μM); 92% in assay [1]; 60% on EPHA3 (EPHA3, 10 μM); 88% at EPHB3 (EPHB3, 10 μM).

Take `Cc1ccc(NC(=O)c2ccc(CN3CCN(C)CC3)cc2)cc1Nc1nccc(-c2cccnc2)n1` [Imatinib, reference compound]: the Percent control on BRK turned out to be 100%; at FES (FES, 10 μM), 100%; on EPHA3 (EPHA3, 10 μM), 100%; at EPHB3 (EPHB3, 10 μM) it was 100%. In addition, the remaining binding at 10 µM on BTK (BTK, 10 μM) stood at 100%; in assay [1], 100%.

For the origin of these results see paper PMC4858680, “A platinum-based hybrid drug design approach to circumvent acquired resistance to molecular targeted tyrosine kinase inhibitors” (Scientific Reports, 2016).
